≈ marks a conversion by molar mass, not a printed value. Like-named read-outs stand apart in the source and are kept apart here.
Assays:
[1] = tested on: S. epidermidis ATCC 12228; experiment: MIC determination, S. epidermidis ATCC 12228; assay type: cell-based, Staphylococcus epidermidis; details: Table 1
S. pneumoniae ATCC 6301 = experiment: MIC determination, S. pneumoniae ATCC 6301; assay type: cell-based, Streptococcus pneumoniae; details: Table 1
S. aureus ATCC 29213 = experiment: MIC determination, S. aureus ATCC 29213; assay type: cell-based, Staphylococcus aureus; details: Table 1
E. faecium CT-26 = experiment: MIC determination, E. faecium CT-26; assay type: cell-based, Enterococcus faecium; details: Table 1
M. tuberculosis H37Rv = experiment: Anti-mycobacterium in vitro activity, H37Rv; assay type: cell-based, Mycobacterium tuberculosis; details: Sensitive strain
E. faecalis ATCC 29212 = experiment: MIC determination, E. faecalis ATCC 29212; assay type: cell-based, Enterococcus faecalis; details: Table 1
[2] = tested on: Candida glabrata ATCC 15126; experiment: Antifungal in vitro MIC, Candida glabrata; assay type: cell-based; details: for MIC: Nakaseomyces glabratus
[3] = tested on: Aspergillus fumigatus ATCC 204305; experiment: Antifungal in vitro MIC, Aspergillus fumigatus; assay type: cell-based; details: for MIC: Aspergillus fumigatus
[4] = tested on: Microsporum canis ATCC 10214; experiment: Antifungal in vitro MIC, Microsporum canis; assay type: cell-based; details: for MIC: Microsporum canis
[5] = tested on: Trichophyton mentagrophytes ATCC 10270; experiment: Antifungal in vitro MIC, Trichophyton mentagrophytes; assay type: cell-based; details: for MIC: Trichophyton mentagrophytes
[6] = tested on: Candida albicans ATCC 90028; experiment: Antifungal in vitro MIC, Candida albicans; assay type: cell-based; details: for MIC Candida albicans ATCC 90028: percent inhibition >= 80%
[7] = tested on: Candida parapsilosis ATCC 22019; experiment: Antifungal in vitro MIC, Candida parapsilosis; assay type: cell-based; details: for MIC: Lodderomyces parapsilosis
[8] = tested on: M. catarrhalis ATCC 25238; experiment: MIC determination, M. catarrhalis ATCC 25238; assay type: cell-based; details: Table 1

Compound	MIC S. epidermidis ATCC 12228 [1]	MIC S. pneumoniae ATCC 6301 (S. pneumoniae ATCC 6301)	MIC S. aureus ATCC 29213 (S. aureus ATCC 29213)	MIC E. faecium CT-26 (E. faecium CT-26)	M. tuberculosis MIC H37Rv (M. tuberculosis H37Rv)	MIC E. faecalis ATCC 29212 (E. faecalis ATCC 29212)	MIC Candida glabrata ATCC 15126 ([2]; percent inhibition >= 80%)	MIC Aspergillus fumigatus ATCC 204305 ([3]; percent inhibition >= 80%)	MIC Microsporum canis ATCC 10214 ([4]; percent inhibition >= 80%)	MIC Trichophyton mentagrophytes ATCC 10270 ([5]; percent inhibition >= 80%)	MIC Candida albicans ATCC 90028 [6]	MIC Candida parapsilosis ATCC 22019 ([7]; percent inhibition >= 80%)	also measured
Oc1cccc2cccnc12 [Compound 50, 8-hydroxyquinoline]	2 micrograms per ml	2 micrograms per ml	2 micrograms per ml	4 micrograms per ml	0.387 µg/mL	4 micrograms per ml							
Oc1cccc2cccnc12 [Compound 10, 8-hydroxyquinoline]	2 micrograms per ml	2 micrograms per ml	1 micrograms per ml	4 micrograms per ml	0.387 µg/mL	32 micrograms per ml							
CCn1ccnc1COB(c1ccc(C)c(Cl)c1)c1ccc(C)c(Cl)c1 [Compound 129, Bis(3-Chloro-4-methylphenyl)borinic acid 1-ethyl-2-(hydroxymethyl)-imidazole ester]							>32 µg/mL	>32 µg/mL	16 µg/mL (≈ 41.3 µM)	32 µg/mL (≈ 82.7 µM)	1 µg/mL (≈ 2.58 µM)	32 µg/mL (≈ 82.7 µM)	
Cc1ccc(B(OCc2cn(Cc3ccccc3)cn2)c2ccc(C)c(Cl)c2)cc1Cl [Compound 127, Bis(3-Chloro-4-methylphenyl)borinic acid 1-benzyl-4-(hydroxymethyl)-imidazole ester]							>32 µg/mL	>32 µg/mL	16 µg/mL (≈ 35.6 µM)	32 µg/mL (≈ 71.2 µM)	1 µg/mL (≈ 2.23 µM)	16 µg/mL (≈ 35.6 µM)	
Oc1cccc2cccnc12 [Compound 53, 8-hydroxyquinoline]	2 micrograms per ml		2 micrograms per ml	4 micrograms per ml	0.775 µg/mL	64 micrograms per ml							MIC ([2]; ATCC15126, read-out: MIC Candida glabrata ATCC 15126): > 32 µg/mL; MIC ([3]; ATCC204305, read-out: MIC Aspergillus fumigatus ATCC 204305): > 32 µg/mL; MIC ([4]; ATCC10214, read-out: MIC Microsporum canis ATCC 10214): 16 µg/mL (≈ 110 µM); MIC M. catarrhalis ATCC 25238 [8]: 2 micrograms per ml; MIC ([5]; ATCC10270, read-out: MIC Trichophyton mentagrophytes ATCC 10270): > 32 µg/mL; MIC ([6]; Candida albicans, ATCC90028, read-out: MIC Candida albicans ATCC 90028): 1 µg/mL (≈ 6.89 µM); MIC ([7]; ATCC22019, read-out: MIC Candida parapsilosis ATCC 22019): 32 µg/mL (≈ 220 µM)
Clc1ccc(B(OCc2cnc[nH]2)c2ccc(Cl)cc2)cc1 [Compound 126, Bis(4-Chlorophenyl)borinic acid 4-(hydroxymethyl)imidazole ester]							>32 µg/mL	>32 µg/mL	16 µg/mL (≈ 48.3 µM)	>32 µg/mL	1 µg/mL (≈ 3.02 µM)	32 µg/mL (≈ 96.7 µM)	
Oc1cccc2cccnc12 [Compound 75, 8-hydroxyquinoline]	1 micrograms per ml	2 micrograms per ml	2 micrograms per ml	4 micrograms per ml	0.775 µg/mL	64 micrograms per ml							
Cc1ccc(B(OCc2cn(C)cn2)c2ccc(C)c(Cl)c2)cc1Cl [Compound 130, Bis(3-Chloro-4-methylphenyl)borinic acid 1-methyl-4-(hydroxymethyl)-imidazole ester]							0.5 µg/mL (≈ 1.34 µM)	0.5 µg/mL (≈ 1.34 µM)	0.5 µg/mL (≈ 1.34 µM)	0.5 µg/mL (≈ 1.34 µM)	1 µg/mL (≈ 2.68 µM)	0.5 µg/mL (≈ 1.34 µM)	
OC(Cn1cncn1)(Cn1cncn1)c1ccc(F)cc1F [Fluconazole, reference compound]													MIC ([2]; ATCC15126, percent inhibition >= 80%, read-out: MIC Candida glabrata ATCC 15126): 3 µg/mL (≈ 9.8 µM); MIC ([3]; ATCC204305, percent inhibition >= 80%, read-out: MIC Aspergillus fumigatus ATCC 204305): > 64 µg/mL; MIC ([4]; ATCC10214, percent inhibition >= 80%, read-out: MIC Microsporum canis ATCC 10214): 16 µg/mL (≈ 52.2 µM); MIC ([5]; ATCC10270, percent inhibition >= 80%, read-out: MIC Trichophyton mentagrophytes ATCC 10270): 16 µg/mL (≈ 52.2 µM); MIC ([7]; ATCC22019, percent inhibition >= 80%, read-out: MIC Candida parapsilosis ATCC 22019): 2.5 µg/mL (≈ 8.16 µM)
Oc1cccc2cccnc12 [Compound 72, 8-hydroxyquinoline]	2 micrograms per ml	4 micrograms per ml	4 micrograms per ml	4 micrograms per ml	0.775 µg/mL	64 micrograms per ml							
Oc1cccc2cccnc12 [Compound 65, 8-hydroxyquinoline]	2 micrograms per ml	2 micrograms per ml	2 micrograms per ml	4 micrograms per ml	0.775 µg/mL	16 micrograms per ml							MIC M. catarrhalis ATCC 25238 [8]: 4 micrograms per ml
C[C@@H]1[C@H](O)[C@@H](C)/C=C/C=C/C=C/C=C/C=C/C=C/C=C/[C@H](O[C@@H]2O[C@H](C)[C@@H](O)[C@H](N)[C@@H]2O)C[C@@H]2O[C@](O)(C[C@@H](O)C[C@@H](O)[C@H](O)CC[C@@H](O)C[C@@H](O)CC(=O)O[C@H]1C)C[C@H](O)[C@H]2C(=O)O [Amphotericin B, reference compound]							0.75 µg/mL (≈ 0.812 µM)	1 µg/mL (≈ 1.08 µM)	0.5 µg/mL (≈ 0.541 µM)	1 µg/mL (≈ 1.08 µM)	1 µg/mL (≈ 1.08 µM)	0.75 µg/mL (≈ 0.812 µM)	
Oc1cccc2cccnc12 [Compound 55, 8-hydroxyquinoline]	1 micrograms per ml	2 micrograms per ml	2 micrograms per ml	2 micrograms per ml	0.775 µg/mL	4 micrograms per ml							MIC M. catarrhalis ATCC 25238 [8]: 4 micrograms per ml
Cc1ccc(B(OCCc2ccccn2)c2ccc(C)c(Cl)c2)cc1Cl [Compound 131, Bis(3-Chloro-4-methylphenyl)borinic acid 2-pyridylethanol]							>32 µg/mL	>32 µg/mL	32 µg/mL (≈ 83.3 µM)	32 µg/mL (≈ 83.3 µM)	2 µg/mL (≈ 5.21 µM)	>32 µg/mL	
Cc1ccc(B(OCc2nccn2C)c2ccc(C)c(Cl)c2)cc1Cl [Compound 128, Bis(3-Chloro-4-methylphenyl)borinic acid 1-methyl-2-(hydroxymethyl)-imidazole ester]							32 µg/mL (≈ 85.8 µM)	>32 µg/mL	12 µg/mL (≈ 32.2 µM)	16 µg/mL (≈ 42.9 µM)	1 µg/mL (≈ 2.68 µM)	16 µg/mL (≈ 42.9 µM)	

— patent US7390806B2, “Antibiotics containing borinic acid complexes and methods of use” (Anacor Pharmaceuticals, Inc., priority 2002, dated 2008)
